From ChEMBL document CHEMBL1201862, “PubChem BioAssay data set” (2004)
The source made the active and inactive calls.

Columns and labels:
Aminopeptidase N = target: T1, Aminopeptidase N (Plasmodium falciparum FcB1/Columbia, UniProt O96935); experiment: P. falciparum M1AAP inhibitors, biochemical, fluorogenic H-Leu-NHMec substrate, 1536-well (AID 1445); design: species or system Plasmodium falciparum 3D7, 3D7
T1 sequence (O96935 whole entry): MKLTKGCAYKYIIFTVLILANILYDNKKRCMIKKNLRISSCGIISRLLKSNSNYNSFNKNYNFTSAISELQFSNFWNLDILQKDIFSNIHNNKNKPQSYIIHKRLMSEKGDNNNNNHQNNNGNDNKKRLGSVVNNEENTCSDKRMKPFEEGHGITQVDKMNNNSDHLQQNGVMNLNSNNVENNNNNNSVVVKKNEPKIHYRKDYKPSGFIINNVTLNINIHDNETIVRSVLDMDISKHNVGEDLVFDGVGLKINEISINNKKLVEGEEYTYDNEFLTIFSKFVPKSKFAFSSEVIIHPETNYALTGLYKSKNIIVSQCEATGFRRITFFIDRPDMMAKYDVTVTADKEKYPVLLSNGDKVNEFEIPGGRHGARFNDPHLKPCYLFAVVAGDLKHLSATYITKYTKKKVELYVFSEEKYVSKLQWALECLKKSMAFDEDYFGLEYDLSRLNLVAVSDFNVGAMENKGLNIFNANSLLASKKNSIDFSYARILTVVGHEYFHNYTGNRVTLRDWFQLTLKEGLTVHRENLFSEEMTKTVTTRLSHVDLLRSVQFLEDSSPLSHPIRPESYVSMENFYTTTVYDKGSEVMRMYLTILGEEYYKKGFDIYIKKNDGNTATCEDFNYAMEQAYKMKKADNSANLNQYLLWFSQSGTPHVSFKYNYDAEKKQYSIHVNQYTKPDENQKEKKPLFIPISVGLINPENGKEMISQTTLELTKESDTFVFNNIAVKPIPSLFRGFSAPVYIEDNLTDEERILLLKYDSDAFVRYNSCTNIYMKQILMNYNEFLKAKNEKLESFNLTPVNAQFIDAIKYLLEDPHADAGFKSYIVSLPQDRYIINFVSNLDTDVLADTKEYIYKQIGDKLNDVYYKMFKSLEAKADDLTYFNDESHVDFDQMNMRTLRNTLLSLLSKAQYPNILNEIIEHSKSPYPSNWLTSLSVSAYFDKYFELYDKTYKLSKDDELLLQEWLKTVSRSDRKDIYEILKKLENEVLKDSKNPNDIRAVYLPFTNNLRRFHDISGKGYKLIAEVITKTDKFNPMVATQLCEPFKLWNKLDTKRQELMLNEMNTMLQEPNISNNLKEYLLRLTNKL

Bcl-2-like protein 10 = target: T2, Bcl-2-like protein 10 (Homo sapiens, UniProt Q9HD36); experiment: displacers of TR3 peptide from Bcl-B, primary screen, selectivity assay for Bfl-1 inhibitor project, biochemical, fluorescence polarization, FITC-TR3 peptide (AID 748);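 further: fluorescence polarization from a fluorescein-labelled TR3 peptide binding purified Bcl-B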
T2 sequence (Q9HD36 whole entry): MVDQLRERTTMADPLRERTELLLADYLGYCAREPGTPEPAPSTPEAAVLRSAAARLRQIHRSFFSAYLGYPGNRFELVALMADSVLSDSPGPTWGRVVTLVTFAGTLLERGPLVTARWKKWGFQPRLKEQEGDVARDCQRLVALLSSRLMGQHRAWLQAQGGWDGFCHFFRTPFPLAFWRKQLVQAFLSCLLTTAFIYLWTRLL

[1] = growth suppression of PTEN-null colon cells, dose response, cell-based, HCT116 PTEN knockout (AID 1047); assay type: functional;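 further: HCT116 colon tumor cells with PTEN knocked out; cells exposed to compound for 60 hours before readout; potency for loss of cell viability measured by luminescence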
[2] = growth suppression of beta-catenin-knockout colon cells, dose response, cell-based, HCT116, human colon tumor (AID 1045); assay type: functional;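 further: HCT116 colon tumor cells with beta catenin knocked out; cells exposed to compound for 60 hours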
[3] = Intein inhibitors as potential Tuberculosis drugs, a cytotoxicity screen. [Related pubchem assays (depositor defined):AID2221, AID2223, AID434968, AID435010, AID449749, AID449750, AID489010]; assay type: functional
[4] = target: T3, Replicative DNA helicase DnaB (Mycobacterium tuberculosis, UniProt P9WMR3); experiment: DnaB intein splicing inhibitors, dose response, biochemical, cell-free fluorescence (AID 449749); assay type: functional
T3 sequence (P9WMR3 whole entry): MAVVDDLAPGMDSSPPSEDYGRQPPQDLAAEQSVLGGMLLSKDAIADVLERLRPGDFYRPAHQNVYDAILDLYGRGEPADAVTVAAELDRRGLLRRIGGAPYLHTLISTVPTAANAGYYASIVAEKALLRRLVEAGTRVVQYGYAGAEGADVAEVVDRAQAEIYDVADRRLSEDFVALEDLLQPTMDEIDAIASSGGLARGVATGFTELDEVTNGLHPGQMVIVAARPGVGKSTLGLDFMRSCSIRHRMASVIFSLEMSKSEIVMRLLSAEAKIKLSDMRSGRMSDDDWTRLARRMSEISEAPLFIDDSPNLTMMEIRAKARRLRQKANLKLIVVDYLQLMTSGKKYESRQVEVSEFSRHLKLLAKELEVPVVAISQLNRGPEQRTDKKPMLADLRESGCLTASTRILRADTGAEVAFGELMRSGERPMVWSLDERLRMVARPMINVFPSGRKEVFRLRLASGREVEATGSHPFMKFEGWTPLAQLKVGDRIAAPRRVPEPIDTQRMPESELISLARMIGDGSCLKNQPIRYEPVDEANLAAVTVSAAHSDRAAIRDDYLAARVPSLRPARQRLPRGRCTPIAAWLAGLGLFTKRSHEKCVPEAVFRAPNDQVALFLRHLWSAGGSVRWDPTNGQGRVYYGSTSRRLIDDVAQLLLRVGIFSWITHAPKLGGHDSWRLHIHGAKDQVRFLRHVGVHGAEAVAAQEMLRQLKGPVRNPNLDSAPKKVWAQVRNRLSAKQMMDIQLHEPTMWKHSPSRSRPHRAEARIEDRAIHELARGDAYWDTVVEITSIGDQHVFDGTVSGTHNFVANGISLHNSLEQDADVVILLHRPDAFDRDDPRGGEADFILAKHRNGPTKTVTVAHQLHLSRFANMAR

Protein RecA = target: T4, Protein RecA (Mycobacterium tuberculosis, UniProt P9WHJ3); experiment: Fluorescence Cell-Free Homogeneous Dose Retest to Identify Inhibitors of RecA-Intein Splicing Activity. [Related pubchem assays (depositor defined):AID2097, AID2223, AID489010, AID492950]; assay type: functional
T4 sequence (P9WHJ3 whole entry): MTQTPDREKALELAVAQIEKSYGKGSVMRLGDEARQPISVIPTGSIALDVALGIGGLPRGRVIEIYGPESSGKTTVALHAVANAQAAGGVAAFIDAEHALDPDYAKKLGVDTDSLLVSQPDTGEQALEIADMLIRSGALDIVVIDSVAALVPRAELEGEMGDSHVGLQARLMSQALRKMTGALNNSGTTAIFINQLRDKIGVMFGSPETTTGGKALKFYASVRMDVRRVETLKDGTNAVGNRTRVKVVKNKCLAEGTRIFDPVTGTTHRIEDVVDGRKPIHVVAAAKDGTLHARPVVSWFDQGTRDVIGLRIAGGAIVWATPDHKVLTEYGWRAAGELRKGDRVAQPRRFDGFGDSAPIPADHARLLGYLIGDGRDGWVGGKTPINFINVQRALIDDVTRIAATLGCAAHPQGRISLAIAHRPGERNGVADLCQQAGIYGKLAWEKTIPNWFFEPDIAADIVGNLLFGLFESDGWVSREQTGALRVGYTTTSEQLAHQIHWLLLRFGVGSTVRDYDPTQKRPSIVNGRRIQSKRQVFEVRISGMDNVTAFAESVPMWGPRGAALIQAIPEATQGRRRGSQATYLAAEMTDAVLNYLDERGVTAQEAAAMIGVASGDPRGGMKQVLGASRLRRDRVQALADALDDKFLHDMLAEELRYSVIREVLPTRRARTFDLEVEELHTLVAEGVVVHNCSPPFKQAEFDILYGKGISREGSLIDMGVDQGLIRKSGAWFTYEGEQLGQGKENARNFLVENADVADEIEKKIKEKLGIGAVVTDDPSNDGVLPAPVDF

[5] = Luminescence Cell-Based Dose Retest to Confirm Inhibitors of Cancer Stem Cells. [Related pubchem assays (depositor defined):AID2717, AID2721]; assay type: functional; conditions: Homo sapiens
[6] = target: DNA damage-inducible transcript 3 protein (Mus musculus, UniProt P35639); assay type: functional, Cricetulus griseus
Chain of DNA damage-inducible transcript 3 protein (P35639 whole entry): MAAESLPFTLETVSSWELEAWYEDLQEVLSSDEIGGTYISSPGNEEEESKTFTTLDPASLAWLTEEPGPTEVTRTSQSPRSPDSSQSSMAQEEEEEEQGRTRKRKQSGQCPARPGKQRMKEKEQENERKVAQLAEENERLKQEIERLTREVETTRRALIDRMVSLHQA

X-box-binding protein 1 = X-box-binding protein 1 (Homo sapiens, UniProt P17861); assay type: functional, Cricetulus griseus;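 further: confirmatory dose-response counter-screen serving a CHOP assay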
Chain of X-box-binding protein 1 (P17861 whole entry): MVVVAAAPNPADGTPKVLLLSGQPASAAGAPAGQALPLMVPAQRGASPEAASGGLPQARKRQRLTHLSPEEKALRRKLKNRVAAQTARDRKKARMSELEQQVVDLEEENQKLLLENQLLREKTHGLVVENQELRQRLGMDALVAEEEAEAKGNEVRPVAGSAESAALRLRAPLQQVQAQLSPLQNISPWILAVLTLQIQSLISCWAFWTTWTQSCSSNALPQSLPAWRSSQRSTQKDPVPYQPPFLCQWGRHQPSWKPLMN

[7] = HEp-2 cell cytotoxicity, dose response, cytotoxicity control for RSV inhibitor project, HTS (AID 2410); assay type: functional; conditions: human respiratory syncytial virus
Coagulation factor XII = target: T5, Coagulation factor XII (Homo sapiens, UniProt P00748); experiment: Factor XIIa Dose Response Confirmation from Single Well HTS. [Related pubchem assays (depositor defined):AID701]; assay type: functional
T5 sequence (P00748 whole entry): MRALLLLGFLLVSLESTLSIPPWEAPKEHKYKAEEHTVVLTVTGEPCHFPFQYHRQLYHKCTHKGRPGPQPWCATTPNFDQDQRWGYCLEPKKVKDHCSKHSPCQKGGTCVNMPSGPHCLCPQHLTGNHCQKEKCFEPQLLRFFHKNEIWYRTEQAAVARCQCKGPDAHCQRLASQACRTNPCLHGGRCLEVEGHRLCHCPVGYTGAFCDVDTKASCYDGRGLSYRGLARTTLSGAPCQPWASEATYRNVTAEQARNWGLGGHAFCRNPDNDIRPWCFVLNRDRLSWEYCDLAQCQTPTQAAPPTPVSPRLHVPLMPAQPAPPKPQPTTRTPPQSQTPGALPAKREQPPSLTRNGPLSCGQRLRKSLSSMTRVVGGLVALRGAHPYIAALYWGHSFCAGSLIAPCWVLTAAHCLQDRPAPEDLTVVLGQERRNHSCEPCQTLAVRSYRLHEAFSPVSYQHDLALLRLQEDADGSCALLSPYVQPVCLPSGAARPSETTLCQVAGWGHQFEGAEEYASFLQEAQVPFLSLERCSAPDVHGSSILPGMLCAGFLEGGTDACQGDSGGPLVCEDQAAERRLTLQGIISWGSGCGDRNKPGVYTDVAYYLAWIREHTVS

Cannabinoid receptor 2 [8] = target: T6, Cannabinoid receptor 2 (Homo sapiens, UniProt P34972); experiment: SAR analysis of antagonists of the Cannabinoid Receptor 2 using an Image-Based Assay - Set 2. [Related pubchem assays (depositor defined):AID1961, AID1965]; assay type: functional
T6 sequence (P34972 whole entry): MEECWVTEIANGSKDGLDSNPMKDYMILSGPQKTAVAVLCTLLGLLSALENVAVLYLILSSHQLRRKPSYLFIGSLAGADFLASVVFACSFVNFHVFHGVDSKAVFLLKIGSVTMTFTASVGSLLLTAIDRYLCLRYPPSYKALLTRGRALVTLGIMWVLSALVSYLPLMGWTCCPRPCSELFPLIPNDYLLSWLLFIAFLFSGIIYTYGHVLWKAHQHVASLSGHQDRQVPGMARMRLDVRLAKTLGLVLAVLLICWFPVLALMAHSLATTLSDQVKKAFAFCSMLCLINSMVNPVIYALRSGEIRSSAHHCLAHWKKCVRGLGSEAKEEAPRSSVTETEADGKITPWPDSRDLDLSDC

[9] = target: G-protein coupled receptor 55 (Homo sapiens, UniProt Q9Y2T6); experiment: SAR analysis of selective Agonists of GPR55 using an Image-Based Assay - Set 2. [Related pubchem assays (depositor defined):AID1961, AID1965]; assay type: functional
Chain of G-protein coupled receptor 55 (Q9Y2T6 whole entry): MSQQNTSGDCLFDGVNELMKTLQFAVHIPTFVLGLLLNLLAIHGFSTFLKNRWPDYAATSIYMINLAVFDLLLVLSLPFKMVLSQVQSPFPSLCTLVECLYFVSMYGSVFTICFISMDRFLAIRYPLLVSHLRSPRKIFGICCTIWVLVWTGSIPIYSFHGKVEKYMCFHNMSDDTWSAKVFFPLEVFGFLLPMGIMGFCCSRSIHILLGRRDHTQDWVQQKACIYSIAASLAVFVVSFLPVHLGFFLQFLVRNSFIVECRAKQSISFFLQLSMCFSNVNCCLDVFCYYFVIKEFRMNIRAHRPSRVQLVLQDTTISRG

Cannabinoid receptor 2 [10] = target: T6, Cannabinoid receptor 2; experiment: SAR analysis of agonists of the Cannabinoid Receptor 2 using an Image-Based Assay - Set 2. [Related pubchem assays (depositor defined):AID1961, AID1965]; assay type: functional
[11] = target: T7, G-protein coupled receptor 35 (Homo sapiens, UniProt Q9HC97); experiment: SAR analysis of Agonists of the GPR35 Receptor using an Image-Based Assay - Set 3. [Related pubchem assays (depositor defined):AID1961, AID1965]; assay type: functional
T7 sequence (Q9HC97 whole entry): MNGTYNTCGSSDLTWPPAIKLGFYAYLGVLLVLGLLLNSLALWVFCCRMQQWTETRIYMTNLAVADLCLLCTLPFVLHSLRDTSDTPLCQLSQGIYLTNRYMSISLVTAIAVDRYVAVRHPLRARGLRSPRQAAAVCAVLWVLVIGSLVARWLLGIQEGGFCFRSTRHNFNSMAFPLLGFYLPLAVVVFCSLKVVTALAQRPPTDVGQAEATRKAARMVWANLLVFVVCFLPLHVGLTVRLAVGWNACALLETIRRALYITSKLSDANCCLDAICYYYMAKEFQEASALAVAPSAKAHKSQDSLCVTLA

Cannabinoid receptor 1 [12] = target: T8, Cannabinoid receptor 1 (Homo sapiens, UniProt P21554); experiment: SAR analysis of antagonists of the Cannabinoid Receptor 1 using an Image-Based Assay - Set 3. [Related pubchem assays (depositor defined):AID1961, AID1965]; assay type: functional
T8 sequence (P21554 whole entry): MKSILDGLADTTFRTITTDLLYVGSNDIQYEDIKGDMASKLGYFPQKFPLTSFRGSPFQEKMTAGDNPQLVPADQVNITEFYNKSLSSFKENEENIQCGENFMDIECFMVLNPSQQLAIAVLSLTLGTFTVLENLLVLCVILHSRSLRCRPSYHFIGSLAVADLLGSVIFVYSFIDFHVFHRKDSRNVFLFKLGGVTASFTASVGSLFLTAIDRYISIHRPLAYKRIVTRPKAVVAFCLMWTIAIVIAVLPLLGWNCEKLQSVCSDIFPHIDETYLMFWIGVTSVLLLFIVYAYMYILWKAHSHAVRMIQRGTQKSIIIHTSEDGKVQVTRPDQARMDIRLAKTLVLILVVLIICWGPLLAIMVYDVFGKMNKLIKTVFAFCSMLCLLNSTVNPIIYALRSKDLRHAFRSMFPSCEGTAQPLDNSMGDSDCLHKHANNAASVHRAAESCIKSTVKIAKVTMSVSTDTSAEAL

Cannabinoid receptor 1 [13] = target: T8, Cannabinoid receptor 1; experiment: SAR analysis of agonists of the Cannabinoid Receptor 1 using an Image-Based Assay - Set 3. [Related pubchem assays (depositor defined):AID1961, AID1965]; assay type: functional
[14] = target: T7, G-protein coupled receptor 35; experiment: SAR analysis of Antagonists of the GPR35 Receptor using an Image-Based Assay - Set 4. [Related pubchem assays (depositor defined):[…]]; assay type: functional

For `Cc1ccc(O)c(/N=C/C2=C(O)c3ccccc3C2=O)c1`, the IC50 (Aminopeptidase N) was 71.9 µM (active), the IC50 (Bcl-2-like protein 10) was 44.7 µM (active) and the EC50 [1] was 32 µM (active). The EC50 [2] was 22.2 µM (active), the CC50 [3] was > 40 µM (active) and the AC50 [4] was 0.4 µM (active). For the same compound, the EC50 (Protein RecA) was 0.216 µM (active).

With `CCCc1ccc(O)c(/N=C/c2cc(Br)cc(OCC)c2O)c1` the AC50 [5] was 9.69 µM (active), the “Absolute IC50 (CHOP)” value [6] was 10 µM and the “Absolute IC50 (XBP1)” value (X-box-binding protein 1) was 10 µM.

In the case of `Cc1ccc(-c2cc(-c3ccccc3)c3c(N)c(S(C)(=O)=O)sc3n2)cc1`, the CC50 [7] is reported as 48.4 µM (active) and the IC50 (Coagulation factor XII) is reported as > 50 µM (inactive).

With `Cc1ccc2cc(C)c3nnc(SCC(=O)N(C)c4nc(-c5ccccc5)cs4)n3c2c1` the IC50 (Cannabinoid receptor 2 [8]) was > 32 µM (inactive), the EC50 [9] was > 32 µM (inactive) and the EC50 (Cannabinoid receptor 2 [10]) was > 32 µM (inactive). For the same compound, the EC50 [11] was > 32 µM (inactive), the IC50 (Cannabinoid receptor 1 [12]) was 4.44 µM (active) and the EC50 (Cannabinoid receptor 1 [13]) was > 32 µM (inactive). The IC50 [14] was > 32 µM (inactive).
